According to article PMC2709466, “Heteroarotinoids with Anti-Cancer Activity Against Ovarian Cancer Cells” (The Open Medicinal Chemistry Journal, 2007):

Columns and labels:
[1] = set-up: method as in PMID 16534614; conditions: cited from earlier work
[2] = set-up: method as in PMID 16534614; conditions: preliminary evidence; cited from earlier work
[3] = system: A2780 ovarian cancer cells; test: CellTiter 96 AQueous One Solution (MTS) cytotoxicity assay, 48 h, A2780; format: cell-based; conditions: for Growth inhibition of ovarian cancer cultures (in words): A2780, Fig. 4; for Differential effects on cancer cells versus normal cells (therapeutic window): A2780 versus normal endometrial cells, Fig. 4C and Table 4; for EC50: Homo sapiens, A2780 ovarian cancer cells, 48 hours of treatment, read-out: Potencies (EC50 values) of Growth Inhibition Activity, A2780 Ovarian Cancer
Experimental: (§1) The CellTiter 96 AQueous One Solution Cell Proliferation Assay (Promega) was used to measure living cells remaining after 48 hours of incubation with or without a range of concentrations for the heteroarotinoids. MTS [3-(4,5-dimethylthiazol-2-yl)-5-(3-carboxymethoxyphenyl)-2-(4-sulfophenyl) -2H-tetrazolium, inner salt], a novel tetrazolium compound, was added to each well and incubated for 4 hours, followed by addition of a solublization/stop solution. After overnight incubation, the optical density (OD) of each well was determined by measuring the absorbance at 540 nm using a Dynex MRX Revelation microtiter plate reader. Treatments were performed in triplicate, and the growth indices were derived by dividing the average OD540 of each treatment by the average OD540 of control cultures. The results represent the average and standard error of two to three independent experiments.
(§2) The A2780 ovarian cancer cells were cultured in RPMI media, and normal endometrial cells were cultured in MEM media. Both media contained fetal bovine serum (FBS), sodium pyruvate, and antibiotic/antimycotic. The normal endometrial cells were collected from a healthy premenopausal […] and used prior to passage as previously described.
The abilities of the new heteroarotinoids to inhibit cancer growth were compared by growing the ovarian cancer cell line (A2780) in the absence and presence of various concentrations of the different compounds. The amount of cells remaining after 48 hours of treatment was measured using a cytotoxicity assay. The optical density (OD) endpoint of the assay represents the number of cells remaining after 48 hours of treatment. The Growth Index was derived by dividing the OD of treated cultures by the OD of untreated cultures. The results are presented in graphic form where Growth Index on the y axis represents the number of cells remaining after 48 hours of treatment relative to untreated controls, and the x axis represents the concentration of drug added. The lower the Growth Index, the greater the growth inhibition.

normal endometrial cells = test: CellTiter 96 AQueous One Solution (MTS) cytotoxicity assay, 48 h, normal cells; format: cell-based; conditions: 48 hours of treatment, read-out: Potencies (EC50 values) of Growth Inhibition Activity, Normal Endometrium
Experimental: as §1, §2

cancerous cell phenotype = system: cancerous cell phenotype; set-up: method as in PMID 11287445; conditions: at 3 μM; cited from earlier work
[4] = preclinical testing; cited from earlier work
A2780 cells = test: Annexin-V-FITC / propidium iodide apoptosis assay (flow cytometry); format: cell-based; conditions: 10 µM, 24 hours
Experimental: Cells were plated in 6-well tissue culture dishes at a cell density of 1 x 10^5 cells/well. After allowing cells to adhere to the dishes overnight, parallel cultures were treated with varying concentrations of heteroarotinoids or the same volume of DMSO solvent for 24 hours. The Vybrant™ Apoptosis Assay Kit #3 (Molecular Probes) was then utilized to measure apoptosis and necrosis. Tissue culture medium in each well was collected to harvest cells that had already lifted off the tissue culture plate. These were combined with adherent cells that were harvested by trypsinization. The cells were pelleted by centrifugation and resuspended in 100 μL of 1X annexin-binding buffer, and then they were incubated with 5 µl of annexin V conjugated to fluorescein (Annexin-V-FITC) and 1 µL of 100 µg/mL propidium iodide (PI) for 15 minutes at room temperature. The solution was then mixed gently with an additional 400 µl of 1X annexin-binding buffer, and the samples were evaluated with a FACSCalibur (Becton Dickinson) automated benchtop flow cytometer at an excitation wavelength of 488 nm with observation wavelengths of 530 nm and 575 nm. Flow cytometry data were quantified using Summit for MoFlo Acquisition and Sort Control Software (Cytomation, Inc). […]

[5] = set-up: method as in PMID 9357524; conditions: mice; cited from earlier work

SMILES	Growth inhibition of ovarian cancer cultures (in words) [3]	Differential effects on cancer cells versus normal cells (therapeutic window) [3]	EC50 [3] [µM]	EC50 (normal endometrial cells) [µM]	melting point [°C]	other results
CC1(C)CC(C)(C)c2cc(NC(=S)Nc3ccc([N+](=O)[O-])cc3)ccc2S1 [Compound 10a, [4-nitrophenylamino][(2,2,4,4-tetramethylthiochroman-6-yl)amino]methane-1-thione]	micromolar range	differential effects	1.72	2.97	–	Binding to proteins in mouse plasma [1]: binds strongly; Concentrations achieved and maintained in animal models [2]: micromolar concentrations; Effects on differentiation (cancerous cell phenotype): normalization of the cancerous cell phenotype and induction of orderly tissue architecture; Toxicity, skin irritancy, teratogenicity [4]: without evidence of toxicity, skin irritancy, or teratogenicity
Cc1ccc2cc(NC(=O)Nc3ccc([N+](=O)[O-])cc3)ccc2n1 [Compound 9b, 1-(2-Methylquinolin-6-yl)-3-(4-nitrophenyl)urea]	–	–	7.86	> 1000	241 to 242	–
CC1(C)CC(C)(C)c2cc(NC(=O)Nc3ccc([N+](=O)[O-])cc3)ccc2S1 [Compound 10c, 1-(2,2,4,4-Tetramethylthiochroman-6-yl)-3-(4-nitrophenyl)urea]	micromolar range	differential effects	1.02	2.29	–	Induction of apoptosis (Annexin-V-FITC staining) (A2780 cells): induces positive staining for Annexin-V-FITC; Degree of apoptosis induced, 10c compared with 10a (A2780 cells; Fig. 5C): slightly higher
CCOC(=O)c1ccc(NC(=O)Nc2ccc3nc(C)ccc3c2)cc1 [Compound 9c, Ethyl 4-[3-(2-Methylquinolin-6-yl)ureido]benzoate]	–	–	4.88	> 1000	–	–
CC1=C(/C=C/C(C)=C/C=C/C(C)=C/C(=O)O)C(C)(C)CCC1 [Compound 1, trans-retinoic acid]	–	–	–	–	–	maximum tolerated dose (MTD) [5]: 10 mg/kg/day
Cc1ccc2cc(NC(=S)Nc3ccc([N+](=O)[O-])cc3)ccc2n1 [Compound 9a, 1-(2-Methylquinolin-6-yl)-3-(4-nitrophenyl) thiourea]	–	–	5	> 1000	113 to 115	–
